Data from patent US6576239B1, “Angiogenic homing molecules and conjugates derived therefrom” (The Burnham Institute, priority 1996, dated 2003).
Like-named read-outs stand apart in the source and are kept apart here. No end group written: not given here.

Columns and labels:
[1] = system: MDA-MB-435 human breast carcinoma cells; format: cell-based; details: for cell killing: agents not removed after 30 min, 24 hr
Description: MDA-MB-435 human breast carcinoma cells were plated at 1×10^5 cells/well in 96 well plates. Cells were incubated with increasing amounts of doxorubicin, the doxorubicin/[…] (SEQ ID NO: 1) conjugate, or the doxorubicin/GACVFSIAHECGA (SEQ ID NO: 19; control) conjugate (0.1 to 10 μg/well of doxorubicin-equivalent) for either 30 min or overnight. […] The number of surviving cells was determined at 24hours with crystal violet staining (see Koivunen et al., supra, 1994).

[2] = system: MDA-MB-435 breast carcinoma; test: Tumor therapy of breast tumor bearing mice with doxorubicin/peptide conjugates; format: in vivo, BALB/c nu/nu mice; details: for gross examination of tumors (skin ulceration, tumor necrosis): 5 μg doxorubicin equivalent; for effect on tumor growth: relative to treatment with the vehicle, alone
Description: Female 2-month old BALB/c nu/nu mice (Harlan Sprague Dawley; San Diego Calif.) were used for these studies and were cared for according to the Burnham Institute animal facility guidelines. MDA-MB-435 breast carcinoma cells (Price et al., Cancer Res. 50:717-721 (1993)) were injected in the mammary fat pad of the nude mice and tumor growth was monitored (Pasqualini et al., supra, 1997). Tumors were allowed to grow to a size of about 1 cm^3 (about 5% of the mouse's body weight) before starting the treatment experiments, except for the toxicity experiments as discussed below.
Weekly doxorubicin/peptide conjugate or control treatments (5 μg/mouse/week of doxorubicin-equivalent) were administered intravenously. In some experiments, as indicated, a dose of 30 μg/mouse was administered every 3 weeks. Treatment with doxorubicin, alone, is referred to as “dox control” and treatment with doxorubicin conjugated to the non-tumor homing control peptide, […] As an additional control, in some experiments the tumor homing peptide was mixed with doxorubicin, without linking, and the mixture was administered to tumor bearing mice. Such treatment produced results that were not statistically different from those obtained with the above described dox controls.
Mice were anesthetized with a tribromoethanol-based anesthetic mixture (AVERTIN; Papaioannou and Fox, Lab. Anim. 43:189-192 (1993)) before each treatment. Anesthetization facilitated the tail vein injections (final volume, 200 μl) and allowed precise serial three dimensional tumor size measurements. Tumor volume calculations were based on the equation for the volume of an ovaloid: V= 4/3 (Πabc), where a, b, and c are ½ of the measured diameters in each of the three dimensions.

[3] = Acute toxicity in mice bearing extremely large tumors
breast tumor [4] = test: Competition of phage tumor homing by coinjection of free peptide; format: in vivo, mice; details: for effect of coinjected free peptide on homing of CDCRGDCFC phage: coinjection with CDCRGDCFC (RGD) phage; for effect of co-injected peptide on accumulation of NGR phage in breast carcinoma xenografts: phage expressing CNGRCVSGCAGRC, NGRAHA or CVLNGRMEC
From the text: Selective homing can be distinguished from nonspecific binding, however, by detecting differences in the abilities of different individual phage to home to a tumor. For example, selective homing can be identified by combining a putative tumor homing molecule such as a peptide expressed on a phage with a large excess of non-infective phage or with about a five-fold excess of phage expressing unselected peptides, injecting the mixture into a subject and collecting a sample of the tumor. […] In addition, nonspecific localization can be distinguished from selective homing by performing competition experiments using, for example, phage expressing a putative tumor homing peptide in combination with an excess amount of the “free” peptide (Example IV).
The various peptides, including RGD- and NGR-containing peptides, generally were bound to the tumor blood vessels. The minimal cyclic NGR peptide, CNGRC (SEQ ID NO: 8), was synthesized based on the CNGRCVSGCAGRC (SEQ ID NO: 3) sequence. When the CNGRC (SEQ ID NO: 8) peptide was co-injected with phage expressing either CNGRCVSGCAGRC (SEQ ID NO: 3), NGRAHA (SEQ ID NO: 6) or CVLNGRMEC (SEQ ID NO: 7), accumulation of the phage in the breast carcinoma xenografts was inhibited. […] (SEQ ID NO: 1) peptide, even when administered in amounts up to ten times higher than those that inhibited the homing of the NGR phage. In comparison, the […]

human αv-integrins = details: cited from earlier work
[5] = system: Human 435 breast carcinoma tumor; test: In vivo targeting of phage expressing a peptide to a tumor (phage quantitated in organs); parameters: species or system mice; details: mouse melanoma, human Kaposi's sarcoma xenograft
Description: Human 435 breast carcinoma cells were inoculated into the mammary fat pad of nude mice. When the tumors attained a diameter of about 1 cm, phage expressing a specific RGD-containing peptide were administered to the tumor bearing mouse. Similar results
1×10^9 phage expressing the RGD-containing peptide, […] (SEQ ID NO: 1; see, Koivunen et al., supra, 1995) or control (insertless) phage were injected intravenously (iv) into the mice and allowed to circulate for 4 min. The mice then were snap frozen or perfused through the heart while under anesthesia, and various organs, including tumor, brain and kidney, were removed and the phage present in the organs was quantitated (see U.S. Pat. No. 5,622,699; Pasqualini and Ruoslahti, supra, 1996).
Approximately 2-3 times more phage expressing the […] (SEQ ID NO: 1) peptide were detected in the breast tumor as compared to brain and kidney, indicating the […] […] In a parallel study, unselected phage, which express various, diverse peptides, were injected into tumor-bearing mice and various organs were examined for the presence of phage. Far more phage were present in kidney and, to a lesser extent, brain, as compared to the tumor. Thus, the 80-fold more RGD-expressing phage than unselected phage concentrated in the tumor.

B16B15b mouse melanoma = test: In vivo panning against a melanoma tumor; parameters: species or system mice; details: 89 cloned phage recovered from B16B15b tumors after three rounds
Description: Tumors were transplanted into mice as described in Examples II and III, below. A mixture of phage libraries containing 1×10^9 to 1×10^14 TU was diluted in 200 μl DMEM and injected into the tail vein of anesthetized mice (AVERTIN (0.015 ml/g); see U.S. Pat. No. 5,622,699; Pasqualini and Ruoslahti, supra, 1996). After 1-4 minutes, mice were snap frozen in liquid nitrogen. To recover the phage, carcasses were partially thawed at room temperature for 1 hr, tumors and control orqans were collected and weighed, then were ground in 1 ml DMEM-PI (DMEM containing protease inhibitors (PI); phenylmethylsulfonyl fluoride (PMSF; 1 mM), aprotinin (20 μg/ml), leupeptin (1 μg/ml)).
Individual colonies containing phage recovered from a tumor were grown for 16 hr in 5 ml NZY/tet. The bacterial cultures obtained from the individual colonies were pooled and the phage were purified and re-injected into mice as described above for a second round of in vivo panning. In general, a third round of panning also was performed. Phage DNA was purified from individual bacterial colonies obtained from the final round of in vivo panning and the DNA sequences encoding the peptides expressed by selected phage were determined (see Koivunen et al., supra, 1994b).
Mice bearing a melanoma were produced by implantation of B16B15b mouse melanoma cells, which produce highly vascularized tumors. […]

breast tumor [6] = test: Viability of tumor cells obtained from tumors of treated mice; format: in vivo; details: 30 μg equivalent iv, tumors removed after five days, cells counted 24 hours and 7 days after plating
Description: In addition, the viability of tumor cells obtained from tumors of mice treated with a tumor homing peptide/doxorubicin conjugate was compared to that of tumors from mice treated with free doxorubicin. In these experiments, breast tumor bearing mice were size matched with regard to the tumors, then treated intravenously with 30 μg equivalent of doxorubicin/CDCRGDCFC (SEQ ID NO: 1) or of free doxorubicin. Five days after treatment, the mice were euthanized and the tumors were removed. The tumor pairs were weighed and ground and the cell suspensions were plated (2 g tumor tissue per 150 mm plate).
Cell numbers were determined at 24 hours and 7 days after plating. Viability of tumor cells from the tumors of mice receiving the doxorubicin/CDCRGDCFC (SEQ ID NO: 1) conjugate was about 3 fold less than cells from tumors of mice treated with the free doxorubicin.

[7] = 30 min exposure, 0.1 to 10 μg/well doxorubicin-equivalent, survivors counted at 24 hours
[8] = 200 μg/mouse, tumors about 25% of body weight
[9] = 5 μg/mouse/week doxorubicin-equivalent iv
[10] = 5 μg/mouse/week iv, t test, p<0.0001

## COc1cccc2c1C(=O)c1c(O)c3c(c(O)c1C2=O)C[C@@](O)(C(=O)CO)C[C@@H]3O[C@H]1C[C@H](N)[C@H](O)[C@H](C)O1 [doxorubicin, reference compound]
[1]; [7]
  cell death: cell death was present only in the cultures treated with the doxorubicin/[…]
[1]
  cell killing: the cells were killed by all of the treatments
[2]
  gross examination of tumors (skin ulceration, tumor necrosis): no such signs were observed
  effect on tumor growth: essentially no effect on tumor growth
[3]; [8]
  time to death after treatment: ≤ 48 h

## ACDCRGDCFCG
Breast tumor [4]; 500 μg free peptide coinjected with phage expressing CDCRGDCFC
  effect of coinjected free peptide on amount of RGD phage in the tumor: reduced the amount of phage in the tumor by about tenfold

## CDCRGDCFC
Breast tumor [4]
  effect of coinjected free peptide on homing of CDCRGDCFC phage: greatly reduced tumor homing of the RGD phage
  effect of co-injected peptide on accumulation of NGR phage in breast carcinoma xenografts: partially inhibited
Breast tumor [4]; higher than that of the CNGRC peptide
  amount needed to inhibit homing of NGR phage relative to CNGRC peptide: 5 to 10 fold
Human αv-integrins
  binding to human αv-integrins: binds to human αv-integrins

## CGSLVRC
Breast tumor [4]; mouse, in vivo
  effect of coadministered free peptide on homing of CGSLVRC phage: inhibited

## CLSGSLSC
[5]
  tumor homing of phage/peptide: also homed to a breast tumor and to Kaposi's sarcoma
B16B15b mouse melanoma
  share of the clones sequenced: 52%

## CNGRC
Breast tumor [4]
  effect of coinjected free peptide on homing of CDCRGDCFC phage: did not inhibit
  effect of co-injected peptide on accumulation of NGR phage in breast carcinoma xenografts: inhibited

## CNGRCVSGCAGRC
[5]
  tumor homing of phage/peptide: also homed in vivo to a melanoma and to a Kaposi's sarcoma, but not to nontumor tissues

## GRGESP [reference compound]
Breast tumor [4]; 500 μg free peptide coinjected with phage expressing […]
  effect of coinjected free peptide on amount of RGD phage in the tumor: essentially had no effect

## WGTGLC
B16B15b mouse melanoma
  share of the clones sequenced: 25%

## doxorubicin/CDCRGDCFC: doxorubicin coupled by EDC/NHS to the tumor homing peptide CDCRGDCFC (SEQ ID NO: 1) (cysteine pairing not given here; also: doxorubicin conjugate via EDC/NHS, site not given here)
[1]; [7]
  cell death: cell death was present
[1]
  cell killing: the cells were killed by all of the treatments
[2]
  gross examination of tumors (skin ulceration, tumor necrosis): marked skin ulceration and tumor necrosis
[2]; [9]
  survival: survived beyond the time when the dox control and conjugate control mice had died
  tumor size compared with control groups: significantly smaller tumors
[2]; [10]
  pulmonary metastasis vs dox control: a lower incidence of pulmonary metastasis and fewer metastatic lesions
  spread to regional lymph nodes vs dox control: less spread to regional lymph nodes
[2]; compared to the dox control group
  histopathological analysis of tumor vasculature: pronounced destruction of the vasculature in the tumors
[2]; dose escalation, 30 μg/mouse every three weeks for three cycles
  time remaining alive after dox control and conjugate control mice had died: more than 6 months
Breast tumor [6]
  viability of tumor cells, fold less than after free doxorubicin: about 3 fold
[3]; [8]
  survival after treatment: survived for longer than one week

## doxorubicin/CNGRC (cysteine pairing not given here; also: doxorubicin conjugate)
[2]; [9]
  survival: marked effect on survival
  tumor size compared with control groups: significantly smaller
[2]
  effect on tumor growth: almost completely suppressed tumor growth
[3]; mouse, in vivo
  toxicity relative to free doxorubicin: less toxic than free doxorubicin

## doxorubicin/GACVFSIAHECGA: doxorubicin conjugated to the non-tumor homing control peptide GACVFSIAHECGA (SEQ ID NO: 19) (cysteine pairing not given here; also: doxorubicin conjugate) [reference compound]
[1]
  cell death: cell death was present only in the cultures treated with the doxorubicin/[…]
  cell killing: the cells were killed by all of the treatments
[2]
  gross examination of tumors (skin ulceration, tumor necrosis): no such signs were observed
  effect on tumor growth: essentially no effect on tumor growth
[2]; [9]
  results as compared to dox control groups: not significantly different
